Values quoted from earlier work, collected in US20230091009A1, “METHOD FOR PROMOTING GROWTH OF GAS-FERMENTED MICROORGANISMS” (HARBIN INSTITUTE OF TECHNOLOGY, SHENZHEN, priority 2021, published 2023).

Details: ambient conditions, even in a supersaturated state

SMILES: [HH] [hydrogen]
- solubility in water: about 0.79 mmol/l
